# According to publication PMC8147254, “Efflux at the Blood-Brain Barrier Reduces the Cerebral Exposure to Ochratoxin A, Ochratoxin α, Citrinin and Dihydrocitrinone” (Toxins, 2021):
# Columns and labels:
# [1] = in vitro; details: pig
# Procedure: (§1) For transfer studies from the apical (blood) side to the basolateral compartment (brain side), 1 µM of mycotoxins were applied on the apical side of the Transwell® filter compartment. Over 48 h, OTA, OTα, CIT, and DHCIT were quantified at eight points in time in both compartments by HPLC-MS/MS in order to investigate the transfer and potential metabolism of the applied compounds.
# (§2) Both devices were operated with Analyst 1.6.2 software (SCIEX Germany GmbH, Darmstadt, Germany). Chromatographic separation of OTA, OTα, CIT, and DHCIT was performed on a 100 mm × 2.1 mm Halo RP-Amide 2.7 µm column (Advanced Materials Technology, Wilmington, NC, USA) equipped with an Ultra filter (KrudKatcher, Phenomenex, Aschaffenburg, Germany) at 40 °C using a gradient of ACN+1% formic acid (FA) (Solvent A) and H2O+1% FA (solvent B) at a flow rate of 250 µL/min. […] Afterwards, the column was re-equilibrated for 4 min. An injection volume of 5 µL was used. A diverter valve was used to exclude the first 5 min of the HPLC run from the mass spectrometer and reduce matrix contamination. The Ion Drive Turbo V ion source was heated to 400 °C. Further conditions were curtain gas (CUR) 35 psi N2, nebuliser gas (GS1) 45 psi N2, heater gas (GS2) 55 psi N2, and ion spray voltage 4500 V in positive and −4500 V in negative ionization mode; each MRM transition was monitored for 5 ms. Detailed mass spectrometer settings are given in the Supplementary Materials of this article.
# (§3) The permeability coefficients p were calculated according to (1) as described in detail in [15]:(1) p[cm/s]=cbas[%]/[…]·Vap[cm³]/A[cm^2]·t[s] where cbas is the mycotoxin concentration in the basolateral compartment at a certain time t [s]. The initial concentration in the apical compartment is c0 h,ap and Vap is the volume of the compartment at the beginning of the experiment. A is the area of the filter insert membrane. The resulting permeability of the mycotoxin across the cell monolayer pc was calculated as shown in (2):(2) 1/pc [cm/s]=1/pc+f [cm/s][…]1/pf[cm/s] where pc+f is the permeability coefficient of the transfer study and pf the permeability coefficient of the cell-free polycarbonate filter membrane. […]
# (§4) serum) and centrifugation at 220 × g at 20 °C for 10 min the supernatant was removed. Fresh complete medium was added and the cell pellet was gently resuspended twice to a final concentration of 150,000 cells/mL. 100 μ L of this suspension were seeded on rat‐tail collagen coated 96‐well plates (rat‐ tail collagen was isolated as described previously) resulting in 15,000 cells per well. PBCEC were incubated at 37 °C, 5% CO2 in a saturated humidified atmosphere. After 48 h the medium was replaced with serum‐free medium (DMEM/Ham’s F‐12 with 100 U/mL penicillin, 100 μg/mL […]
# (§5) Aldrich, Steinheim, Germany)). […]
# (§6) The thawing and seeding procedure was performed according to the protocol already described for the viability test as previously published. Instead of using 96‐well plates, 500 μL PBCEC suspension (500,000 cells/mL) were seeded in the upper (apical) compartment of a 12‐well Transwell®
# [2] = system: PBCEC monolayer; test: in vitro; details: for amount in the apical compartment after 48 h, of initially applied amount / amount transferred to the basolateral compartment after 48 h, of initially applied amount: 1 µM (760 pmol) apical, n = 9
# Procedure: as §1, §2, §3, §4, §5, §6
# [3] = 13 German volunteers; cited from earlier work
# [4] = system: PBCEC; assay type: cell-based, porcine; details: pig
# Procedure: In order to study the barrier integrity PBCEC were incubated with 1 µM OTA, OTα, CIT and DHCIT in the apical compartment (blood side) of Transwell® filter inserts for 48 h. The TEER values as well as the electrical capacitance (cCL) were monitored by cellular impedance spectroscopy (Figure 4A,B). As a negative control the permeability of […] was measured after 48 h. Sucrose is not transported by any cellular transport protein and represents a marker for an intact BBB. […]
# 6.1. Cellular impedance spectroscopy […]
# 6.2. […] permeability
# As additional method to control the barrier tightness the permeability of radiolabeled […]
# across the Transwell® inserts was measured. Since 14C sucrose is not transported or taken up by endothelial cells, the permeability of 14C sucrose is an appropriate parameter for barrier integrity.
# After 48 h exposure to the mycotoxins 1 μ Ci (37 kBq) […] (Amersham, Buckinghamshire, UK) was applied to the apical compartment. Samples from the basolateral compartment were collected after 10, 20, 30, 40, 60 and 80 min, diluted in scintillation fluid and analyzed with a scintillation counter as previously described.
# [5] = 50 German volunteers, dried blood spot; cited from earlier work
# [6] = 289 µg OTA/kg body weight/48 h for up to 6 weeks; cited from earlier work
structure (smiles),measurement,setting,value
"C[C@@H]1Cc2c(Cl)cc(C(=O)O)c(O)c2C(=O)O1 [OTα, ochratoxin α]",Papp A→B,[1],0.68 ± 0.15 ×10⁻⁶ cm/s
same,"amount in the apical compartment after 48 h, of initially applied amount",[2],86 ± 6%
same,"amount transferred to the basolateral compartment after 48 h, of initially applied amount",[2],19 ± 4%
same,mean total OTα level in blood plasma,[3],2.99 ± 2.24 ng/mL
same,permeability pc (14C sucrose) after mycotoxin incubation,[4],0.56 ± 0.24 10^−6 cm/s
"CC1=C2C(=CO[C@H](C)[C@H]2C)C(O)=C(C(=O)O)C1=O [CIT, Citrinin]",Papp A→B,[1],1.79 ± 0.4 ×10⁻⁶ cm/s
same,"amount in the apical compartment after 48 h, of initially applied amount",[2],67 ± 3%
same,"amount transferred to the basolateral compartment after 48 h, of initially applied amount",[2],40 ± 4%
same,permeability relative to the negative control 14C sucrose (factor),[2]; pig,ca. 4
same,permeability pc (14C sucrose) after mycotoxin incubation,[4],0.50 ± 0.33 10^−6 cm/s
"Cc1c(O)c(C(=O)O)c(O)c2c1[C@H](C)[C@@H](C)OC2=O [DHCIT, dihydrocitrinone]",Papp A→B,[1],0.51 ± 0.14 ×10⁻⁶ cm/s
same,"amount in the apical compartment after 48 h, of initially applied amount",[2],87 ± 13%
same,"amount transferred to the basolateral compartment after 48 h, of initially applied amount",[2],14 ± 3%
same,permeability pc (14C sucrose) after mycotoxin incubation,[4],0.38 ± 0.17 10^−6 cm/s
"C[C@@H]1Cc2c(Cl)cc(C(=O)N[C@@H](Cc3ccccc3)C(=O)O)c(O)c2C(=O)O1 [OTA, Ochratoxin A]",Papp A→B,[1],0.38 ± 0.08 ×10⁻⁶ cm/s
same,"amount in the apical compartment after 48 h, of initially applied amount",[2],96 ± 7%
same,"amount transferred to the basolateral compartment after 48 h, of initially applied amount",[2],14 ± 3%
same,mean OTA concentration in blood plasma,[3],0.25 ± 0.03 ng/mL
same,mean whole blood concentration of OTA,[5],0.21 ± 0.066 ng/mL
same,permeability pc (14C sucrose) after mycotoxin incubation,[4],0.81 ± 0.17 10^−6 cm/s
same,concentration in brain tissue,[6],up to 94 ± 16 ng/g
